Publication PMC12067444, “Synthesis and Pharmacological Characterization of Novel Peripheral Cannabinoid-1 Receptor Blockers Based on a Tricyclic Scaffold” (Journal of Medicinal Chemistry, 2025)
Several values for one entry are separate records, joined by “and”; a condition that tells them apart may be missing. Equal entries are not always repeated. Where two headings read alike, the source gives them in different places. Each block holds one compound with its values, some of them ahead of it.

Columns and labels:
human CB1R = biological target: T1, human CB1R (Homo sapiens, UniProt P21554); assay: Radioligand competition displacement binding, [3H]CP-55,940, membranes with human CB1R; settings: for IC50: human CB1R, read-out: CB1R hIC50
T1 construct: purchased PerkinElmer RBHCB1M400UA
Method: BNS compounds’ binding to CB1R and CB2R was assessed in competition displacement assays using [^3H]CP-55,940 as the radioligand and crude membranes from mouse brain or human cells overexpressing the CB1R or CB2R. All data were in triplicates with Ki values determined from three independent experiments. See SI for a detailed procedure. […]
(§1) Radioligand binding assays were performed to asse ss the binding affinity of the different compounds to hCB1R (RBHCB1M4 00UA; Per kinElmer) or hCB 2R
(§2) (RBXCB2 M400UA; PerkinElmer). Competition displacement as says w ere employed, […]
(§3) utilizing [3H] C P -55,940 as the radioligand and crude membranes from humans for CB1 R or CB2 R. T he compounds were tested at various concentrations (eight points with a five-fold serial dilution starting at two m M) , and their ability to displace [3H] CP - 55, 940 was evaluated. Upon completion of the binding assays, the reaction mixture was filtered through GF/C plates, followed by four washes with cold wash buffer. After drying for one hour, 50 μL of Perkin Elmer Microscint 20 cocktail was added to the filter plate wells, and the bound [3H] C P -55,940 radioligand was measured using a β counter. All data points were duplicated, and Ki values were determined from two independent experiments using GraphPad Prism 7.02 analysis software, extracted through nonlinear regression analysis. […]

mouse CB1R = biological target: T2, mouse CB1R (Mus musculus, UniProt P47746); assay: Radioligand competition displacement binding, [3H]CP-55,940, mouse brain membranes; settings: [3H]CP-55,940 displacement, mouse brain membranes; read-out: CB1R mKi
T2 construct: crude membranes from mouse brain; from tissue; host or cells: mouse brain cortex (without cerebellum) membranes, C57Bl/6Jhsd mice
Method: (§4) BNS compounds’ binding to CB1R and CB2R was assessed in competition displacement assays using [^3H]CP-55,940 as the radioligand and crude membranes from mouse brain or human cells overexpressing the CB1R or CB2R. All data were in triplicates with Ki values determined from three independent experiments. See SI for a detailed procedure.
Supplementary Experimental Methods
Brain membrane preparation for CB1R b i nd i ng . The mouse cortex, excluding the cerebellum, was dissected from 6-week-old C57Bl/6Jhsd mice (Harlan, Israel). The tissue was homogenized in 4 mL Buffer 1 (320 mM sucrose, 2 mM EDTA, 5 m M MgCl 2) using a glass-Teflon homogenizer and Hei-T ORQUE 200 (Heidolph; Cat# 17-012- 002- 25 -1) homogenizer set to 132 rpm. After homogenization, the mixture was centrifuged at 1,600 × g for 10 min at four °C, and the resulting supernatant was kept on ice. The pellet (P1) was discarded, and the remaining supernatant was subje cted to additional rounds of resuspension in 4 mL Buffer 1 followed by centrifugations, repeating this process three times. The pellets obtained from these centrifugations were discarded, and the three supernatant fractions were combined and subjected to higher-speed centrifugation at 39,000 × g for 15 min at f ou r °C. […] This resuspended pellet ( P 2 ) was incubated at 37 °C for 10 min and then centrifuged at 23, 000 × g for 10 min at 4°C.
After centrifugation, the pellet (P2) was resuspended in 5 mL Buffer 2 and further incubated at 30 °C for 40 min. Following this incubation, the suspension was centrifuged at 11,000 × g for 15 min at 4 °C. The pellet (P2) was resuspended in 2 mL Buffer 3 containing 50 mM TRIS HCl pH 7.4, 1 mM EDTA, and 3 mM MgCl 2. T h e protein concentration of the final suspension was determined using the BCA assay.
Subsequently, the suspension was diluted to a final concentration of 2 mg/mL in Buffer 3, aliquoted on ice, and stored at - 80 °C for further use.
(§5) CB1R and CB2R binding. Binding to the CB1R/CB2R was asse ss ed using competition displacement as says with [ 3H] CP -55,940 as the radioligand. Purified membranes from the mouse brain were utilized for CB1R assessment (as described above). Purified […]
membranes from cells overexpressing human CB2R ( Char les River CAT # A618) w e r e employed for CB2R evaluation.
For mouse CB1R binding assays, the novel compounds were dissolved in dimethyl sulfoxide (DMSO) to reach a final concentration of 10 mM. Each compound was then diluted in Buffer 3 (as described above) supplemented with 0.14% BSA, resulting in concentrations ranging from 10^-4 M to 10^-10 M. Triplicates of 100 µL of each concentration were dispensed into siliconized glass tubes. At the same time, 100 µL of Buffer 3 with 0.14% BSA was dispensed into three tubes as blanks. CB1R b r a i n membranes (20 µg) were added to each tube and diluted with 800 µL Buffer 3 with 0.14% BSA. Subsequently, 5 nM of [ 3H] CP -55,940 (100 µL) was added to each tube.
The tubes were sealed with parafilm and incubated with shaking (120 rpm) in a water bath at 30 °C for 1 hour. Following incubation, 2 mL of cold Buffer 4 (50 mM TRIS HCl pH 7.4, 1 mg/mL BSA) was added to each tube.
To harvest the content of each tube, a Brandel M-24R Vacuum Harvester was employed, with a wet WHATMAN GF/B filter paper (Fired) (one membrane for 12 tubes) placed in the harvester after being washed twice with Buffer 4. The filter membrane in the harvester absorbed the full content of each tube. Then, the filter membrane was wash ed six times with Buffer 4. Each filter -glass membrane tube wa s excised and transferred to a 20 mL glass tube co ntaining a 5 mL ULTIMA GOLD scintillation cocktail. […]

human CB2R = biological target: T3, human CB2R (Homo sapiens, UniProt P34972); assay: Radioligand competition displacement binding, [3H]CP-55,940, membranes with human CB2R; settings: [3H]CP-55,940 displacement, read-out: CB2R hKi
T3 construct: purchased PerkinElmer; Charles River RBXCB2M400UA; A618
Method: as §4
Supplementary Experimental Methods […]
as §5
membranes from cells overexpressing human CB2R ( Char les River CAT # A618) w e r e employed for CB2R evaluation. […]
as §1, §2, §3
MgCl 2. The tissue was homogenized using a glass -Teflon and Hei-T ORQUE 200 homogenizer (Heidolph; Cat#17- 012- 002- 25 -1) set to 132 rpm. The resulting suspen sion underwent centrifugation at 48,000 × g for 20 min at four °C, and the supernatant was discarded. The pellet obtained was homogenized again and subjected to a second centrifugation under the same conditions. Subsequently, the resulting pellet […]
mM EGTA, 9 mM MgCl 2, and 150 mM NaCl, followed by homogenization. The protein concentration of the suspension was determined using the BCA assay, and the suspen sion was diluted to a final concentration of 2 mg/mL in assay buffer. The prepared suspension was aliquoted on ice and stored at - 80 °C for further use.

P-gp (MDR1-MDCKII cells) = P-gp (MDR1-MDCKII cells) (Homo sapiens, UniProt P08183); assay: Bidirectional permeability in MDR1-MDCKII cells with and without GF120918
Method: (§6) MDR1-MDCKII cells were seeded onto […] (PET) in a 96-well insert system. Test and reference compounds were administered to the apical (A-to-B) and basolateral (B-to-A) sides of the cell monolayer. Permeation of the compounds in both directions was assessed, with and without a P-glycoprotein (P-gp) inhibitor (GF120918). […] After a 2.5-h incubation period, each compound’s permeability and efflux ratio were calculated as described in the SI. […]
(§7) Bidirectional permeability assessment in MDR1-MDCK cells. Test and reference compounds were quantified using LC -MS/MS ana lysis based on th e peak ar ea r atio of analyte to internal standard (IS). T he apparent permeability coefficient (Papp) in cm/s was computed using the equation: Pa pp = (dCr/d t ) × V r / ( A × C 0), where dCr/ d t […]
(§8) represents the cumulative concentration of the compound in the receiver chamber over time (µM/s), Vr is the solution volume in the receiver chamber (0.075 mL on the apical side, 0.25 mL on the basolateral side), A is the surface area for transport (0.0804 cm2 f or the monolayer ar ea), and C0 is the initial concentration in the donor chamber ( µM) .
(§9) The efflux ratio was determined using the equation Efflux Ratio = P a pp ( B:
(§10) A ) / Pa pp (A: B) . […]
(§11) Additionally, the percent of lucifer yellow in the basolateral well was calculated using the equation:
(§12) Lucif er yellow = VV bbbbbbbbbbbbbbbbbbbb ×RR FFFF bbbbbbbbbbbbbbbbbbbb ×100 VV bbaaaaaa bbbb ×RRRRRR bbaaaaaa bbbb+VV bbbbbbbbbbbbbbbbbbbb ×RRFFFF bbbbbbbbbbbbbbbbbbbb wher e RFUApical and RFUBasolateral demote the r elative f luor escence unit values of lucif er yellow in the apical and basolateral wells, respectively, and VApical and VBasolateral represent the volumes of apical and basolateral wells (0.075 mL and 0.25 mL, r espectively) . T he % Lucif er Yellow should be less than 2, indicating minimal leakage. […]

P-gp (MDR1) = P-gp (MDR1) (Homo sapiens, UniProt P08183); assay: as above; settings: dog
Method: as §6, §7, §8, §9, §10, §11, §12

HepG2 cells = assay: Cell viability assay (CellTiter Glo); format: cell-based; settings: 72 h; for IC50: Homo sapiens
Method: Cell viability assay. To assess the cell viability, which indicates the toxicity of the novel compounds, a total of 3,000 HepG2 cells were seeded into a 384-well plate. The compounds were then dispensed onto the cell plate using a Tecan D300e digital dispenser. Following compound addition, 35 μL CellTiter Glo reagent was added to all wells of the assay plate, and the plate was mixed for 30 sec on an or bital shaker to lyse cells. Subsequently, the plate was incubated at room temperature for 10 minutes. The luminescence signal was measured using a 384-well plate reader (EnVision). The obtained data were analyzed using XL-fit software (ID Business Solutions Ltd., Software version: XL fit 5. 5. 0. 5). The percentage of inhibition was calculated using the […]
Inhibition (%) = (1-Sample / ZPE) ×100
Sample represents the test compound's luminesc e nce signal, and ZPE represents the luminescence signal f r om the zer o-percent enzyme control.

T1 sequence (P21554 whole entry): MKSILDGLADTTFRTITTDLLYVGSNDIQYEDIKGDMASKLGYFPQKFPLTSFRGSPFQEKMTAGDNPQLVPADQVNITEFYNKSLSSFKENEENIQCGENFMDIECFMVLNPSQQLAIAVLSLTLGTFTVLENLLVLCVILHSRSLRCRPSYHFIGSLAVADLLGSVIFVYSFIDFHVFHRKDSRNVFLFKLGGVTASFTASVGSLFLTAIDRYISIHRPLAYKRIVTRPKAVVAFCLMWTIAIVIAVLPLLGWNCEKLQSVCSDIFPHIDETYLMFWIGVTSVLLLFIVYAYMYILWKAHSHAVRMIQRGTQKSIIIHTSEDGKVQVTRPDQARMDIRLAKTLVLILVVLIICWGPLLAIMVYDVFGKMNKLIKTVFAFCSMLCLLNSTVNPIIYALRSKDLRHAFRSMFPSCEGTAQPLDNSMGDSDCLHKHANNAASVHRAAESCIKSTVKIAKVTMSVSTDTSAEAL
Chain of P-gp (MDR1) (P08183 whole entry): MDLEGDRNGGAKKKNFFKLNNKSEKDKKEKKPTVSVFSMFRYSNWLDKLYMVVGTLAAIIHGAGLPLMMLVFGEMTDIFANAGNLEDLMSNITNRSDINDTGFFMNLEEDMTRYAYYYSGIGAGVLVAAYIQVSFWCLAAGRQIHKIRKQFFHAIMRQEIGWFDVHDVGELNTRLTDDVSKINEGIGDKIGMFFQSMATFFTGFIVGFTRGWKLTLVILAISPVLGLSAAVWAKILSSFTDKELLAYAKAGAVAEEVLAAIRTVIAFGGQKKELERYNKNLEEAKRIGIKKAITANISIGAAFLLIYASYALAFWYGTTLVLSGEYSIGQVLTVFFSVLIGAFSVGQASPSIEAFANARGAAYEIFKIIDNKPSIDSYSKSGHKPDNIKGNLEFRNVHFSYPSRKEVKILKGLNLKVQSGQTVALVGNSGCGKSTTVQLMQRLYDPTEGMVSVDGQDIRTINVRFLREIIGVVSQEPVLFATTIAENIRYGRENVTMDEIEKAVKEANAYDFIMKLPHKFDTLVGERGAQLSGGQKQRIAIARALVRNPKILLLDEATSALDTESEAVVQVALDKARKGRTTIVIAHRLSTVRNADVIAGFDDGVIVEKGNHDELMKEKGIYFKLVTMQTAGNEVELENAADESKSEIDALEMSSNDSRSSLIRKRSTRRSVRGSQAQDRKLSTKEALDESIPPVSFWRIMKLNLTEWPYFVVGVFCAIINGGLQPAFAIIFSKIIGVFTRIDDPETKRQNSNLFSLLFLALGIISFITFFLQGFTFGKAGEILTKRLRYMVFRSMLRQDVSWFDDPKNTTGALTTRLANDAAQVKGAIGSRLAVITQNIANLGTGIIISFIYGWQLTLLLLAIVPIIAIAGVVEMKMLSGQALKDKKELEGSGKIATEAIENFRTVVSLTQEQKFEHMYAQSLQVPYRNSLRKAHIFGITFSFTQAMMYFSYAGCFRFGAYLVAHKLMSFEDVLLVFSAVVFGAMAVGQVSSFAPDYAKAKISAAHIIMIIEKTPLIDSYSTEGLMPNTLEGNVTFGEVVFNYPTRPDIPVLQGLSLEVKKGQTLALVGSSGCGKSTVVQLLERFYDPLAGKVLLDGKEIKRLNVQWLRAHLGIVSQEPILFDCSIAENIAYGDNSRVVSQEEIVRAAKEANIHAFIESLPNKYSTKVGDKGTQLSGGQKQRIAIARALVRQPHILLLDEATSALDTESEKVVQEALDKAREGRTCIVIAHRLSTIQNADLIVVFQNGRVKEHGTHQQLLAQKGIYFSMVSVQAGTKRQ
T3 sequence (P34972 whole entry): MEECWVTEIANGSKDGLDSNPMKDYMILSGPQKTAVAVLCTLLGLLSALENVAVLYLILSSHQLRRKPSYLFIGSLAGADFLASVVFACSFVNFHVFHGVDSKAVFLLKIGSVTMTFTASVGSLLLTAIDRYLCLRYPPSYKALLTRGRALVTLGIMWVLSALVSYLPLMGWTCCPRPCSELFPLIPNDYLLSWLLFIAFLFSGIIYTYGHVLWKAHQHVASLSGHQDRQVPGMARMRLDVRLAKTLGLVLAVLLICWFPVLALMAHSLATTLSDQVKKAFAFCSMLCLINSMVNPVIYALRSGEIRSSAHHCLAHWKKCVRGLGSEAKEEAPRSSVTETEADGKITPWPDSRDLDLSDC
T2 sequence (P47746 whole entry): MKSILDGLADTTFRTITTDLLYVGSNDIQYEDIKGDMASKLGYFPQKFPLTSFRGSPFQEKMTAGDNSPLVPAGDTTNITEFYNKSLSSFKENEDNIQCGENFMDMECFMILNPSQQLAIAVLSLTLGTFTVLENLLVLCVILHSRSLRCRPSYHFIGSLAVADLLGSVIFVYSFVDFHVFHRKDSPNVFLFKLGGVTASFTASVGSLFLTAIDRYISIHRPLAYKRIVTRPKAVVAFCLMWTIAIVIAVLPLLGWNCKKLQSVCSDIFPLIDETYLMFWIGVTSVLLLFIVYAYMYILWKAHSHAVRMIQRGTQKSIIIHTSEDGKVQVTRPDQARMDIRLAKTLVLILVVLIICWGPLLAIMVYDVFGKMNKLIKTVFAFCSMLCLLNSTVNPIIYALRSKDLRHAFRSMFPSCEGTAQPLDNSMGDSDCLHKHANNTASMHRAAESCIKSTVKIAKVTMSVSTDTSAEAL
Chain of P-gp (MDR1-MDCKII cells) (P08183 whole entry): as the sequence (P08183 whole entry) above

IC50 (human CB1R): 8.5 nM
Ki (mouse CB1R): 33.8 nM
Ki (human CB2R): > 9000 nM
SMILES: CS(=O)(=O)NC1CCCOc2c1nn(-c1ccccc1Cl)c2-c1ccc(Cl)cc1 (centres unmarked) [BNS809, N-[2-(2-Chlorophenyl)-3-(4-chlorophenyl)-5,6,7,8-tetrahydrooxepino[3,2-c]pyrazol-8-yl]methanesulfonamide]

Ki (mouse CB1R): 1130 nM
SMILES: CNC(=O)NC1CCCOc2c1nn(-c1ccccc1Cl)c2-c1ccc(Cl)cc1 (centres unmarked) [BNS813, 1-[2-(2-Chlorophenyl)-3-(4-chlorophenyl)-5,6,7,8-tetrahydrooxepino[3,2-c]pyrazol-8-yl]-3-methyl-urea]

SMILES: CCOC(=O)N1CCC(C(=O)NC2CCCOc3c2nn(-c2ccccc2Cl)c3-c2ccc(Cl)cc2)CC1 (centres unmarked) [BNS816, Ethyl-4-((2-(2-chlorophenyl)-3-(4-chlorophenyl)-5,6,7,8-tetrahydro-2H-oxepino[3,2-c]pyrazol-8-yl)carbamoyl)piperidine-1-carboxylate]
P-gp substrate (P-gp (MDR1-MDCKII cells); MDR1-MDCKII cells): no
Rank Papp (P-gp (MDR1-MDCKII cells); MDR1-MDCKII permeability rank): Hi gh
Papp A→B at 2.5 h (P-gp (MDR1); MDCK-MDR1): 6.99 ×10⁻⁶ cm/s
Papp B→A at 2.5 h (P-gp (MDR1); MDCK-MDR1): 5.37 ×10⁻⁶ cm/s
efflux ratio at 2.5 h (P-gp (MDR1); MDCK-MDR1): 0.77
recovery at 2.5 h (P-gp (MDR1); MDCK-MDR1, Mean recovery % A to B, without GF120918): 41.6%
recovery at 2.5 h (P-gp (MDR1); MDCK-MDR1, Mean recovery % B to A, with GF120918): 61.4%
recovery at 2.5 h (P-gp (MDR1); MDCK-MDR1, Mean recovery % B to A, without GF120918): 48.8%
Ki (mouse CB1R): 8.9 nM and 8.93 nM
Ki (human CB2R): 1530 nM

Ki (human CB1R; [3H]CP-55,940 displacement, human CB1R membranes, read-out: CB1R hKi): 3.1 nM
IC50 (human CB1R): 3.8 nM
IC50 (HepG2 cells; read-out: cell viability Absolute IC50): > 100000 nM
IC50 (HepG2 cells; read-out: cell viability relative IC50): > 100000 nM
Ki (mouse CB1R): 1.6 nM
Ki (human CB2R): 127 nM
SMILES: O=C(NC1CCCOc2c1nn(-c1ccccc1Cl)c2-c1ccc(Cl)cc1)C1CCN(S(=O)(=O)c2ccc(Cl)cc2)CC1 (centres unmarked) [BNS825, N-[2-(2-Chlorophenyl)-3-(4-chlorophenyl)-5,6,7,8-tetrahydrooxepino[3,2-c]pyrazol-8-yl]-1-(4-chlorophenyl)sulfonyl-piperidine-4-carboxamide]
Bottom (%) of cell viability inhibition curve (HepG2 cells): -11.62%
Slope of cell viability inhibition curve (HepG2 cells): -0.21
Top (%) of cell viability inhibition curve (HepG2 cells): 6.27%
